Measurements from US20250304596A1, “PYRAZINE DERIVATIVES AND USES THEREOF” (FOGHORN THERAPEUTICS INC., priority 2022, published 2025).

What was measured:
[1] = target: T1, HiBit-BRG1 fusion protein (Homo sapiens, UniProt P51532); test: HiBiT-BRG1 cell-based degradation assay (Nano-Glo HiBiT Lytic Detection, 24 h); details: stable HeLa cell line expressing HiBit-BRG1 and LgBit; for Dmax: read-out: BRG1 HiBit Degradation Maximum (%); for DC50: read-out: BRMG1 HiBit Degradation IC50
T1 construct: expressed in transfected cells
T1 sequence (P51532 whole entry, the tested form may be a part): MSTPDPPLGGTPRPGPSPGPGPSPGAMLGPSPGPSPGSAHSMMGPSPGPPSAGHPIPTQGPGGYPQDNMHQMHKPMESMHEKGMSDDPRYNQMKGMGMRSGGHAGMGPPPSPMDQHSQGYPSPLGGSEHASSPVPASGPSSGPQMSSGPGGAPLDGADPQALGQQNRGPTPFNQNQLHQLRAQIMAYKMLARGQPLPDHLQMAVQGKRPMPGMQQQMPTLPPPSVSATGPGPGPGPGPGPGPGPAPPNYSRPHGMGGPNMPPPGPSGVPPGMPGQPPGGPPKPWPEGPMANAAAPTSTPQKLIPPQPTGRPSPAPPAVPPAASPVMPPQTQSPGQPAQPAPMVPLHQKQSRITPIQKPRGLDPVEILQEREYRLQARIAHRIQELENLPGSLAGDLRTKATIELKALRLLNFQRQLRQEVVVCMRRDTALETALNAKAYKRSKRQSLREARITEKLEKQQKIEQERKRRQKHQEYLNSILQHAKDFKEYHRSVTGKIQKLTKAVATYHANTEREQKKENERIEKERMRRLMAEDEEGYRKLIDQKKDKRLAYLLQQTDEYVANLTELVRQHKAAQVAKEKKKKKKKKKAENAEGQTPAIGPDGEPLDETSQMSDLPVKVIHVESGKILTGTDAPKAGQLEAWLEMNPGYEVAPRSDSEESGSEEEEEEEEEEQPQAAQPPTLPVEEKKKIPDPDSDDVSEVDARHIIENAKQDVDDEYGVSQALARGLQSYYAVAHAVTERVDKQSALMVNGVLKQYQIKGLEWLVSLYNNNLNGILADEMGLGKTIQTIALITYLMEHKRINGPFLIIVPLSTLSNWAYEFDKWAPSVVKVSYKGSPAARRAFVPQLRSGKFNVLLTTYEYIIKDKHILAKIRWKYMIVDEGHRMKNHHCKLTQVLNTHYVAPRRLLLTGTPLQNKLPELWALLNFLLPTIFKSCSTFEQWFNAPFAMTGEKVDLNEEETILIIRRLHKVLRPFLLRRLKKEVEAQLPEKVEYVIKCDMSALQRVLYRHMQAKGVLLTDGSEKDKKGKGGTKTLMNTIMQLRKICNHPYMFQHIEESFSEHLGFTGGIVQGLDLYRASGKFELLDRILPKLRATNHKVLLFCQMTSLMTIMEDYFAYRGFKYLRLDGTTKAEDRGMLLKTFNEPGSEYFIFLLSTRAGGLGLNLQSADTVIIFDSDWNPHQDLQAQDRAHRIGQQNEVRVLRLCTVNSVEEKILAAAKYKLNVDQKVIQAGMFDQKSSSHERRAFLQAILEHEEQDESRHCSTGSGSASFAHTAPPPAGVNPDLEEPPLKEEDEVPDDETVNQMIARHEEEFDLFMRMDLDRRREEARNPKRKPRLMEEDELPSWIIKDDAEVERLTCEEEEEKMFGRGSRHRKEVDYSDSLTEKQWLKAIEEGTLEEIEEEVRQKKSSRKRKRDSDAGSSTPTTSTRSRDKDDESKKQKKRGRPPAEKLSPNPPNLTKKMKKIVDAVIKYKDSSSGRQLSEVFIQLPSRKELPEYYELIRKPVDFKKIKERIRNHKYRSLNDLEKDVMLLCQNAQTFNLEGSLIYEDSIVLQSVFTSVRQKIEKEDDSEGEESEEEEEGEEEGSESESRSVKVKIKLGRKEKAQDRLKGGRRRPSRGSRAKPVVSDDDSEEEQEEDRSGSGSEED
In short: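 HeLa cells stably expressing HiBit-BRG1 and LgBit, treated 24 h with 3-fold dilutions (10 points, duplicate, 30 μM final top dose). Luminescence read after Nano-Glo HiBiT lytic reagent; % degradation scaled between DMSO (high) and 2 μM reference BRM/BRG1 degrader (low control).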

[2] = target: T2, HiBit-BRM fusion protein (Homo sapiens, UniProt P51531); test: HiBiT-BRM cell-based degradation assay (Nano-Glo HiBiT Lytic Detection, 24 h); details: stable HeLa cell line expressing HiBiT-BRM; for DC50: read-out: BRM HiBit Degradation IC50
T2 construct: expressed in transfected cells
T2 sequence (P51531 whole entry, the tested form may be a part): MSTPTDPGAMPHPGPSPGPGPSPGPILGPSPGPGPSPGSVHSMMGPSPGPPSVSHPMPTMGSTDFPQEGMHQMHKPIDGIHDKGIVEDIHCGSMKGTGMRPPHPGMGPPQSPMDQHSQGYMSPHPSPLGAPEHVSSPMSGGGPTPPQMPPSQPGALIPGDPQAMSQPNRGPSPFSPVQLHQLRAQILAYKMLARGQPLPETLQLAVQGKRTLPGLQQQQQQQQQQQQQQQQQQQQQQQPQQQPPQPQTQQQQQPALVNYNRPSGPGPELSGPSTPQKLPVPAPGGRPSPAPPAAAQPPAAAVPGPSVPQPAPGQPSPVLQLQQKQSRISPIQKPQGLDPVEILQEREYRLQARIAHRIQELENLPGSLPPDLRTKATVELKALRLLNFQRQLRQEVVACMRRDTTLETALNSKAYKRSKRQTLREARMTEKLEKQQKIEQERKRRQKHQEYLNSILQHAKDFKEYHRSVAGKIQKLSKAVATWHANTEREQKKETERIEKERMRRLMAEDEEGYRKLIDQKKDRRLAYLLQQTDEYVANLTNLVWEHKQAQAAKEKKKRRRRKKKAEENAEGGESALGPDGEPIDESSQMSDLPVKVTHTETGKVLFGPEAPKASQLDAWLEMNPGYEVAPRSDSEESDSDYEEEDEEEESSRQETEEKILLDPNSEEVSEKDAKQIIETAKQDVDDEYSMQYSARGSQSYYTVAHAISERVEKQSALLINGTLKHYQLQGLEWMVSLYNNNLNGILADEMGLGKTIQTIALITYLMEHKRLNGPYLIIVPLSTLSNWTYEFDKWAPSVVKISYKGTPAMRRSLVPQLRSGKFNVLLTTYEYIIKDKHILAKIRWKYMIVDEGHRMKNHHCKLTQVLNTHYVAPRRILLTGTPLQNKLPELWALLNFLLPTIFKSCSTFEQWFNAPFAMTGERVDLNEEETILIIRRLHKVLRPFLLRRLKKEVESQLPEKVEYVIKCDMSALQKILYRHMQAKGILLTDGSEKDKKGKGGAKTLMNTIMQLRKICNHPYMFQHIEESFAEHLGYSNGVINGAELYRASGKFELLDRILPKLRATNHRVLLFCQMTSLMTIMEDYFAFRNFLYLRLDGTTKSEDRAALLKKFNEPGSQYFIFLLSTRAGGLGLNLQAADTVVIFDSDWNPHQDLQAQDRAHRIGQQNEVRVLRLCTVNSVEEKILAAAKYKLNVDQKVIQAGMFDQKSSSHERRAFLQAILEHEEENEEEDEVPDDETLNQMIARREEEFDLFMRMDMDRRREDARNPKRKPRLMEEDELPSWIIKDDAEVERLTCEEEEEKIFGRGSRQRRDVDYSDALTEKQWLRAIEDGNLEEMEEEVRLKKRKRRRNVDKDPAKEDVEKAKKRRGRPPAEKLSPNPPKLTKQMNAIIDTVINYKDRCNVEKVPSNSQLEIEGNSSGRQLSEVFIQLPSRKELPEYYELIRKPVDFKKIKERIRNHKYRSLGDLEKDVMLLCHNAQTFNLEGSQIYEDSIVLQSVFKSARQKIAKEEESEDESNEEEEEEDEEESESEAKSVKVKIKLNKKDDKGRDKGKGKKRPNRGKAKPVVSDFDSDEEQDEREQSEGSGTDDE
In short: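 A stable HeLa line expressing HiBiT-BRM was treated for 24 h with compound in a 10-point, 3-fold series (30 μM final top dose). Remaining HiBiT-BRM was read by lytic LgBiT complementation luminescence. % degradation was normalised to DMSO (high control) and 2 μM reference BRM/BRG1 degrader (low control).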

Row | SMILES | Dmax [1] | DC50 [1] | BRM HiBit Degradation Maximum (%) [2] | DC50 [2]
1 | Cc1ncsc1-c1ccc([C@H](C)NC(=O)[C@@H]2C[C@@H](O)CN2C(=O)[C@@H](c2cc(-c3cnc(N4CC[C@@H](c5sc6nnc(-c7ccccc7O)cc6c5C)C4)nc3)no2)C(C)C)cc1 [Compound 47, (2S,4R)-4-hydroxy-1-((R)-2-(3-(2-((R)-3-(3-(2-hydroxyphenyl)-5-methylthieno[2,3-c]pyridazin-6-yl)pyrrolidin-1-yl)pyrimidin-5-yl)isoxazol-5-yl)-3-methylbutanoyl)-N-((S)-1-(4-(4-methylthiazol-5-yl)phenyl)ethyl)pyrrolidine-2-carboxamide] | > 75% | < 10 nM | A (“A” indicates maximum degradation ≥75%) | > 10 nM
2 | Cc1ncsc1-c1ccc([C@H](C)NC(=O)[C@@H]2C[C@@H](O)CN2C(=O)[C@@H](c2cc(-c3cnc(N4CCC(c5sc6nnc(-c7cccc(Cl)c7O)cc6c5C)CC4)nc3)no2)C(C)C)cc1 [Compound 29, (2S,4R)-1-((R)-2-(3-(2-(4-(3-(3-chloro-2-hydroxyphenyl)-5-methylthieno[2,3-c]pyridazin-6-yl)piperidin-1-yl)pyrimidin-5-yl)isoxazol-5-yl)-3-methylbutanoyl)-4-hydroxy-N-((S)-1-(4-(4-methylthiazol-5-yl)phenyl)ethyl)pyrrolidine-2-carboxamide] | < 50% | > 1000 nM | C (“C” indicates maximum degradation <50%) | > 1000 nM
3 | Cc1ncsc1-c1ccc([C@H](C)NC(=O)[C@@H]2C[C@@H](O)CN2C(=O)[C@@H](c2cc(-c3cnc(CN4CCC(c5cc6cc(-c7ccccc7O)nnc6s5)CC4)nc3)no2)C(C)C)cc1 (single isomer, unassigned) [Compound 99] | < 50% | – | B (“B” indicates maximum degradation ≥50%) | > 10 nM
4 | Cc1ncsc1-c1ccc([C@H](C)NC(=O)[C@@H]2C[C@@H](O)CN2C(=O)[C@@H](c2cc(N3C[C@@H]4[C@H](C3)[C@H]4c3sc4nnc(-c5ccccc5O)cc4c3C)no2)C(C)C)cc1 [Compound 16, (2S,4R)-4-hydroxy-1-((R)-2-(3-((1R,5S,6R)-6-(3-(2-hydroxyphenyl)-5-methylthieno[2,3-c]pyridazin-6-yl)-3-azabicyclo[3.1.0]hexan-3-yl)isoxazol-5-yl)-3-methylbutanoyl)-N-((S)-1-(4-(4-methylthiazol-5-yl)phenyl)ethyl)pyrrolidine-2-carboxamide] | > 50% | > 10 nM | A (“A” indicates maximum degradation ≥75%) | < 10 nM
5 | Cc1ncsc1-c1ccc([C@H](C)NC(=O)[C@@H]2C[C@@H](O)CN2C(=O)[C@@H](c2cc(N3CC4(CC(c5cc6cc(-c7ccccc7O)nnc6s5)C4)C3)no2)C(C)C)cc1 (single isomer, unassigned) [Compound 1] | > 75% | > 10 nM | A (“A” indicates maximum degradation ≥75%) | < 10 nM
6 | Cc1ncsc1-c1ccc([C@H](C)NC(=O)[C@@H]2C[C@@H](O)CN2C(=O)[C@@H](c2cc(-c3ccnc(N4CCC(c5sc6nnc(-c7ccccc7O)cc6c5C)CC4)c3)no2)C(C)C)cc1 [Compound 10, (2S,4R)-4-hydroxy-1-((R)-2-(3-(2-(4-(3-(2-hydroxyphenyl)-5-methylthieno[2,3-c]pyridazin-6-yl)piperidin-1-yl)pyridin-4-yl)isoxazol-5-yl)-3-methylbutanoyl)-N-((S)-1-(4-(4-methylthiazol-5-yl)phenyl)ethyl)pyrrolidine-2-carboxamide] | > 75% | > 10 nM | A (“A” indicates maximum degradation ≥75%) | > 10 nM
7 | Cc1cc(N2CCC(c3sc4nnc(-c5ccccc5O)cc4c3C)CC2)ncc1-c1cc([C@H](C(=O)N2C[C@H](O)C[C@H]2C(=O)N[C@@H](C)c2ccc(-c3scnc3C)cc2)C(C)C)on1 [Compound 38, (2S,4R)-4-hydroxy-1-((R)-2-(3-(6-(4-(3-(2-hydroxyphenyl)-5-methylthieno[2,3-c]pyridazin-6-yl)piperidin-1-yl)-4-methylpyridin-3-yl)isoxazol-5-yl)-3-methylbutanoyl)-N-((S)-1-(4-(4-methylthiazol-5-yl)phenyl)ethyl)pyrrolidine-2-carboxamide] | < 50% | > 1000 nM | A (“A” indicates maximum degradation ≥75%) | < 10 nM
8 | Cc1ncsc1-c1ccc([C@H](C)NC(=O)[C@@H]2C[C@@H](O)CN2C(=O)[C@@H](c2cc(-c3ccc(N4CC(c5sc6nnc(-c7ccccc7O)cc6c5C)C4)nc3)no2)C(C)C)cc1 [Compound 49, (2S,4R)-4-hydroxy-1-((R)-2-(3-(6-(3-(3-(2-hydroxyphenyl)-5-methylthieno[2,3-c]pyridazin-6-yl)azetidin-1-yl)pyridin-3-yl)isoxazol-5-yl)-3-methylbutanoyl)-N-((S)-1-(4-(4-methylthiazol-5-yl)phenyl)ethyl)pyrrolidine-2-carboxamide] | < 50% | > 1000 nM | B (“B” indicates maximum degradation ≥50%) | > 10 nM
9 | Cc1cc(N2CC[C@@H](c3sc4nnc(-c5ccccc5O)cc4c3C)C2)ncc1-c1cc([C@H](C(=O)N2C[C@H](O)C[C@H]2C(=O)N[C@@H](C)c2ccc(-c3scnc3C)cc2)C(C)C)on1 [Compound 96, (2S,4R)-4-hydroxy-1-((R)-2-(3-(6-((R)-3-(3-(2-hydroxyphenyl)-5-methylthieno[2,3-c]pyridazin-6-yl)pyrrolidin-1-yl)-4-methylpyridin-3-yl)isoxazol-5-yl)-3-methylbutanoyl)-N-((S)-1-(4-(4-methylthiazol-5-yl)phenyl)ethyl)pyrrolidine-2-carboxamide] | < 50% | – | B (“B” indicates maximum degradation ≥50%) | > 10 nM
10 | Cc1ncsc1-c1ccc([C@H](C)NC(=O)[C@@H]2C[C@@H](O)CN2C(=O)[C@@H](c2cc(N3CC4(CC(c5sc6nnc(-c7ccccc7O)cc6c5C5CC5)C4)C3)no2)C(C)C)cc1 [Compound 87, (2S,4R)-1-[(2R)-2-(3-{6-[5-cyclopropyl-3-(2-hydroxyphenyl)thieno[2,3-c]pyridazin-6-yl]-2-azaspiro[3.3]heptan-2-yl}-1,2-oxazol-5-yl)-3-methylbutanoyl]-4-hydroxy-N-[(1S)-1-[4-(4-methyl-1,3-thiazol-5-yl)phenyl]ethyl]pyrrolidine-2-carboxamide] | < 50% | – | A (“A” indicates maximum degradation ≥75%) | < 10 nM
